This note sets out measurements from patent US12215215B2, “Stabilizer compositions and methods for using same for protecting polymeric organic materials from UV light and thermal degradation” (Cytec Industries Inc., priority 2014, dated 2025).

Structures are written as SMILES. A value given as a limit tells only on which side of the number the result lay.

This series is described as follows: Solubility of triazine UV absorbers in cyclohexane at room temperature. The series is classed as physicochemical. The conditions noted are these: room temperature (20° C.). The text has this:
UV stabilizers and co-additives. […] Solubility measurements of various orthohydroxyphenyl triazines in cyclohexane (substitute for polypropylene) conducted at room temperature indicate that such triazines having a solubility greater than 0.04 wt. % can be used in certain embodiments as the UV absorber of the stabilizer compositions described herein.

`CCCCCCCCOc1ccc(-c2nc(-c3ccc(C)cc3C)nc(-c3ccc(C)cc3C)n2)c(O)c1` [UV-1164, 2-[4,6-bis(2,4-dimethylphenyl)-1,3,5-triazin-2-yl]-5-(octyloxy) phenol]: the “Solubility of triazines in Cyclohexane at room temperature” value is 1.4 ± 0.2 weight %.

Turning to `CCCCCCCCOc1ccc(-c2nc(-c3ccc(OCCCCCCCC)cc3O)nc(-c3ccc(OCCCCCCCC)cc3O)n2)c(O)c1` [Formulation P-800, 2,4,6-tris(2-hydroxy-4-octyloxy-phenyl)-1,3,5-triazine], the “Solubility of triazines in Cyclohexane at room temperature” value is over 0.04% weight %.
